Reference: patent US10695434B2, “Preventing central nervous system induced nausea through use of vitamin B12 conjugation” (Syracuse University, priority 2018, dated 2020)

Columns and labels:
[1] = Conditioned taste avoidance (CTA), two-bottle test (nausea/malaise); format: in vivo, Sprague Dawley rats; details: rats, IP, B12-Ex4 5 μg/kg, LiCl 0.15M
Procedure: Rats (n=8-10 per drug) were evaluated for expression of a CTA to a flavor paired with B12-Ex4 (5 μg/kg, IP). […] See Supplemental Methods for more details.

[2] = target: T1, Human recombinant TCII (Homo sapiens, UniProt P20062); assay: TCII binding, radio chase assay using 57Co-labelled B12
T1 sequence (P20062 19-427): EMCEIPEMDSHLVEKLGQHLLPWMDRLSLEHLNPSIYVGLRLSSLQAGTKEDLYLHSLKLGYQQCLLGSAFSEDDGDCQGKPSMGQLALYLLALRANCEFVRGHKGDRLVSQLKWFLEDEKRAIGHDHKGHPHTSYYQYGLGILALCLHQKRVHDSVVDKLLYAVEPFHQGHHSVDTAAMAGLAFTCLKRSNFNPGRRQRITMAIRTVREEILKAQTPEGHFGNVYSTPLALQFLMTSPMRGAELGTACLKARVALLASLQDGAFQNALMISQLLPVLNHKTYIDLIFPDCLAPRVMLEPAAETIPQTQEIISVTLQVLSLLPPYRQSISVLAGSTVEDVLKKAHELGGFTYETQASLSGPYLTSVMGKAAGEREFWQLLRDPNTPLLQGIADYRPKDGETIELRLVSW
Excerpt: FIG. 1 is a series of graphs of (A) Synthetic scheme for Cy5-B12, Cy5 alkyne was “clicked” onto a B12-azide conjugate. (B) RP-HPLC of Cy5-B12 showing purity ≥98% and LC-MS showing 1031[M+2H]^+2, 1042[M+Na+2H]^+2, and 1050 [M+K+2H]^+2, consistent with the conjugate. (C) Excitation and emission spectra of Cy5-B12 at 645 and 682 nm, respectively. […] Note that B12-Ex4 agonism at the GLP-1 receptor was previously reported (68 pM).
One addition to the characterization was the measure of TCII binding of B12-Ex4 (FIG. 1D), which was conducted at the Department of Clinical Medicine-Clinical Biochemistry, University of Aarhus, Denmark as described. […] Injections were separated by at least 48 h. For most in vivo experiments, injections were administered using a within-subjects, Latin square design. The exception was the conditioned taste avoidance (CTA) study, which used a between-subjects design.
In addition, the food intake- and body weight-suppressive effects of GLP-1R agonists have highlighted the utility of these pharmacotherapies for the treatment of obesity.

[3] = Oral glucose tolerance test (OGTT); format: in vivo, Sprague Dawley rats; details: rats
Procedure: Rats (n=12) were deprived of food overnight before testing. On the morning of testing, just after the onset of the […], water was also removed from the cage. A small drop of blood was collected from the tail tip and analyzed for blood glucose (BG) level using a standard glucometer (AccuCheck). Immediately after this baseline BG reading (t=−30 min), each rat received SC injection of B12-Ex4 (5 or 20 μg/kg) or vehicle (1 ml/kg sterile saline); doses of drug were selected based on the results of the feeding study. Thirty minutes later (t=0 min), BG was measured and each rat received an oral gavage of glucose (2 g/kg). Subsequent BG readings were taken at 20, 40, 60, and 120 min after glucose gavage. After the final BG reading, food and water were returned.
(§1) Pre-weighed food was returned to the rats after the OGTT, and chow intake was measured for ˜21.5 h (e.g., until 24 h after the SC injections). Spillage was accounted for in food intake measurements. Body weight was recorded at 0 and 24 h. For the OGTT, n=10 rats were tested; food and body weight data were collected from n=9 due to a technical error in food intake measurement.

[4] = Oral glucose tolerance test, food intake and nausea (kaolin consumption) in diabetic lean rats; format: in vivo; details: Goto-Kakazaki rats; Ex-4 20 ug/Kg, B12-Ex4 equimolar, liraglutide 100 ug/Kg, 60 min pre-glucose
Procedure: FIG. 8 is a series of graphs showing a standard oral glucose tolerance test performed in Goto-Kakazaki rats, a form of naturally diabetic lean rat, along with food intake and nausea measurements.
Referring to FIG. 8, Testing of Ex-4 at 20 ug/Kg, B12-Ex4 at equimolar to Ex-4, and liraglutide at 100 ug/Kg were screened for glucoregulation, food intake reduction and nausea (kaolin consumption). All drugs were administered at 60 minutes pre-glucose bolus, food intake and nausea were tracked over 6 hours.

[5] = Energy balance: chow intake and body weight after SC injection; format: in vivo, Sprague Dawley rats; details: rats
Procedure: Shortly before the onset of the dark phase, rats (n=12) were given subcutaneous (SC) injection of B12-Ex4 (1, 5, or 20 μg/kg) or vehicle (1 ml/kg sterile saline). Chow intake was measured at 1, 3, 6, and 24 h post-injection. Food spillage was accounted for in all intake measurements. Body weight was also measured at 0 and 24 h.
as §1

[6] = Intraperitoneal glucose tolerance test (IPGTT); format: in vivo, C57BL/6J mice; details: mice
Procedure: The experimental procedure for IPGTT in mice was similar to that used for OGTT in rats. Briefly, mice (n=13; 8 females, 5 males) were food and water deprived for 4 h before and during the IPGTT. Testing was completed mid-light phase. Blood was collected from the tail tip and analyzed for BG. […] Thirty minutes later (t=0 min), BG was measured and each mouse received an IP injection of glucose (2 g/kg). Subsequent BG readings were taken at 20, 40, 60, and 120 min after glucose injection. After the final BG reading, food and water were returned. Area under the curve (AUC) was calculated from 0-120 min (e.g., beginning at the time of glucose administration) using the trapezoidal method.

With `[Cl-].[Li+]` [LiCl, lithium chloride] the “acceptance of the drug-paired flavor (CTA)” value [1] was “produce avoidance of the drug-paired flavor”.
With Cyanocobalamin [cyano-B12] the Kd [2] was 0.98 nM.
With exendin-4 [Ex4] the “blood glucose by drug on its own (t=0, before glucose)” value ([3]; SC 5 or 20 μg/kg, 30 min after injection) was “increased BG on its own”, the “blood glucose levels in the OGTT (overall)” value ([3]; SC 5 or 20 μg/kg, oral glucose 2 g/kg) was “pronounced hyperglycemic response” and the “BG late after glucose gavage” value ([3]; B12-Ex4: both doses at 60 min, higher dose at 120 min, Ex4: 40, 60, 120 min) was “remained significantly elevated”. The “hyperglycemia in OGTT” value [4] was “does do”, the “food intake in the 21.5 h after OGTT” value ([5]; SC 5 or 20 μg/kg, vs vehicle) was “ate significantly less” and the “body weight gain, 24 h” value ([5]; SC, vehicle versus 20 μg/kg p<0.05) was “gained less body weight”. For the same molecule, the “BG prior to IP glucose injection (t=0)” value ([6]; 30 min after IP drug) was “reduced BG levels”, the “blood glucose levels in the IPGTT” value ([6]; IP Ex4 5 μg/kg or equimolar B12-Ex4, IP glucose 2 g/kg) was “strongly attenuated the increase in blood glucose levels” and the “BG at 20 min, Ex4 compared to B12-Ex4” value ([6]; p<0.05) was “more potent effect”. The “blood glucose area under the curve 0-120 min” value ([6]; post-glucose load, vs saline) was “hypoglycemic effects”.
